Assay results taken from patent publication US20200375987A1, “METALLO-BETA-LACTAMASE INHIBITORS AND METHODS OF USE THEREOF” (priority 2018, published 2020).
Converted amounts (≈) assume the structure as drawn.

How the values were obtained:
[1] = test system: Pseudomonas aeruginosa MB5890 Trans pFlp-Vim2 plasmid (efflux−); assay type: cell-based; settings: MB 5890 Trans pFlp-Vim2 plasmid, OprD+
[2] = test system: Pseudomonas aeruginosa PAO1 MB5919 (oprD+, efflux+); assay type: cell-based
From the text: (§1) The strain background is Pseudomonas aeruginosa PAO1. A wild-type (MB5919) and an isogenic strain in which multiple efflux pumps have been disrupted genetically were used. The MBL IMP-1, obtained from a clinical isolate was introduced into the strain pair by the following process:
(§2) Plasmid DNA (encoding IMP-1) was extracted from CL 5673 (IMP-1, P. aeruginosa clinical strain) by standard techniques. The plasmid DNA was transformed into parental MB5919 (oprD+, efflux+, inducible AmpC) and MB5890 (oprD+, efflux−, inducible AmpC) isogenic strains by electroporation. These transformed strains were plated onto cation-adjusted Muller-Hinton agar plates containing ceftazidime at 32 μg/mL (MB5919) and 16 μg/mL (MB5890) to select for those cells in which the IMP-1-expressing plasmid was introduced successfully, resulting in resistance to ceftazidime.
(§3) Minimum inhibitory concentrations of sentinel antibiotics were performed to quality control the new strains.

[3] = test system: Pseudomonas aeruginosa MB9798 (MB5919 Trans IMP1 plasmid, efflux+); assay type: cell-based; settings: MB5919 Trans IMP1 plasmid (MB 9798), OprD+
From the text: as §1, §2, §3

[4] = test system: Pseudomonas aeruginosa MB5890 (oprD+, efflux−); assay type: cell-based; settings: MB 5890, OprD+
From the text: as §1, §2, §3

[5] = test system: Pseudomonas aeruginosa MB9799 (MB5890 Trans IMP1 plasmid, efflux−); assay type: cell-based; settings: MB 5890 Trans IMP1 plasmid (MB 9799), OprD+
From the text: as §1, §2, §3

[6] = test system: Pseudomonas aeruginosa MB5919 Trans pFlp-Vim2 plasmid (efflux+); assay type: cell-based; settings: MB 5919 Trans pFlp-Vim2 plasmid, OprD+
[7] = test system: Pseudomonas aeruginosa MB9861 (MB5919 Trans pFlp-Vim1 plasmid, efflux+); assay type: cell-based; settings: MB5919 Trans pFlp-Vim1 plasmid (MB 9861), OprD+
[8] = test system: Pseudomonas aeruginosa MB9862 (MB5890 trans pFlp-Vim1 plasmid, efflux−); assay type: cell-based; settings: MB 5890 trans pFlp-Vim1 plasmid (MB 9862), OprD+
[9] = test system: Serratia marcescens expressing IMP-1 (CL5741); experiment: Antibiotic potentiation activity: synergistic concentration (MITC95) with imipenem; assay type: cell-based; settings: imipenem 1 μg/mL; lowest concentration inhibiting 95% of growth; 35° C., 22-24 hours
How it was run: (§4)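 Clinical MBL-expressing strains diluted into 1.1× CAMHB were incubated with compound plus imipenem at 1 μg/mL for 22–24 h at 35 °C, then absorbance was read. MITC95 is the lowest compound concentration giving 95% growth inhibition in the presence of imipenem.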

[10] = test system: Klebsiella pneumoniae expressing VIM-1 (IHMA599644); experiment: as above; assay type: cell-based; settings: imipenem 1 μg/mL; lowest concentration inhibiting 95% of growth; 35° C., 22-24 hours
How it was run: as §4

[11] = test system: Escherichia coli expressing NDM-1 (CLB30016); experiment: as above; assay type: cell-based; settings: imipenem 1 μg/mL; lowest concentration inhibiting 95% of growth; 35° C., 22-24 hours
How it was run: as §4

[12] = test system: P. aeruginosa MB9799 (efflux mutant, IMP-1); experiment: Efflux: concentration of MBL inhibitor restoring susceptibility to imipenem (MITC95), efflux− strain; assay type: cell-based, Pseudomonas aeruginosa; settings: imipenem at 2 μg/mL in the presence of a class A, C, D serine β-lactamase inhibitor closely related to relebactam
How it was run: (§5)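 Isogenic P. aeruginosa PAO1 strains, efflux+ and efflux−, transformed with IMP-1 plasmid, were tested by microbroth MIC with fixed imipenem, usually at CLSI breakpoint, plus fixed class A/C β-lactamase inhibitor against AmpC. MBL inhibitor was serially titrated; the concentration restoring susceptibility was recorded.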

NDM-1 = NDM-1 (Klebsiella pneumoniae, UniProt C7C422); experiment: Enzyme activity: determination of IC50, fluorescence assay with CCF2-FA substrate (NDM-1); assay type: biochemical; settings: 1 pM enzyme, 1.25 μM CCF2-FA, 2 hours at 25° C.; read-out: NDM1 IC50
How it was run: (§6)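 Enzyme (NDM-1 1 pM, IMP-1 2 pM, VIM-1 30 pM final) and 1.25 μM CCF2-FA incubated with inhibitor (20 to 0.00063 μM) for 2 h at 25° C in 100 mM KH2PO4 pH 7, 0.005% Tween-20, 10 μM ZnSO4. Fluorescence read at ex 405/em 460 nm; IC50 by 4-parameter fit.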

[13] = test system: P. aeruginosa MB9798 (efflux WT, IMP-1); experiment: Efflux: concentration of MBL inhibitor restoring susceptibility to imipenem (MITC95), efflux+ strain; assay type: cell-based, Pseudomonas aeruginosa; settings: imipenem at 2 μg/mL in the presence of a class A, C, D serine β-lactamase inhibitor closely related to relebactam
How it was run: as §5

VIM-1 = VIM-1 (Pseudomonas aeruginosa, UniProt A0A0F7KYQ8); experiment: Enzyme activity: determination of IC50, fluorescence assay with CCF2-FA substrate (VIM-1); assay type: biochemical; settings: 30 pM enzyme, 1.25 μM CCF2-FA, 2 hours at 25° C.; read-out: VIM1 IC50
How it was run: as §6

IMP-1 = IMP-1 (Serratia marcescens, UniProt P52699); experiment: Enzyme activity: determination of IC50, fluorescence assay with CCF2-FA substrate (IMP-1); assay type: biochemical; settings: 2 pM enzyme, 1.25 μM CCF2-FA, 2 hours at 25° C.; read-out: IMP1 IC50
How it was run: as §6

VIM-2 = VIM-2 (Escherichia coli, UniProt Q5U7L7); experiment: Enzyme activity: determination of IC50 (VIM-2); assay type: biochemical; settings: read-out: VIM2 IC50

Chain of NDM-1 (C7C422 29-270, looked up, species assumed): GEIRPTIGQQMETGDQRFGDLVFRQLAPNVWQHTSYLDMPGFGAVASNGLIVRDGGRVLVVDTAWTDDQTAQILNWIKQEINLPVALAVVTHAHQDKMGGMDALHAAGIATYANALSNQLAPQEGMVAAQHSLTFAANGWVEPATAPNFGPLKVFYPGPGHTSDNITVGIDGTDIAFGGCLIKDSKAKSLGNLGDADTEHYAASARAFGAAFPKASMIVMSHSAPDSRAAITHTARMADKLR
Chain of IMP-1 (P52699 19-246, looked up, species assumed): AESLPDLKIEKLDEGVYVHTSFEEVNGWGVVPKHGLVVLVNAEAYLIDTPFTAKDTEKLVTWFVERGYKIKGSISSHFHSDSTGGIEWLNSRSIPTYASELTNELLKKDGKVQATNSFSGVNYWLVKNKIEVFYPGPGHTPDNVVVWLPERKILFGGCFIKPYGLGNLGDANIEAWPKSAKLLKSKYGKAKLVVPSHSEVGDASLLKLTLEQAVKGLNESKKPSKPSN

Compound	MIC [1]	MIC [2]	MIC [3]	MIC [4]	MIC [5]	MIC [6]	MIC [7]	MIC [8]	CL5741 S.marcescens MITC95 uM IMP [9]	IHMA599644 K.pneumoniae MITC95 uM VIM [10]	CLB30016 E.coli MITC95 NDM [11]	MB9799 MITC95 P. aeruginosa Efflux Mutant [12]	IC50 (NDM-1)	MB9798 MITC95 P. aeruginosa Efflux WT [13]	IC50 (VIM-1)	IC50 (IMP-1)	IC50 (VIM-2)
CCN1CCN(C(=O)N[C@@H](C(=O)N[C@@H]2C(=O)N3[C@@H]2SC(C)(C)[C@@H]3C(=O)O)c2ccccc2)C(=O)C1=O [Pipercillin]	128 mg/L (≈ 247 µM)	2 mg/L (≈ 3.86 µM)	4 mg/L (≈ 7.73 µM)	1 mg/L (≈ 1.93 µM)	4 mg/L (≈ 7.73 µM)	> 256 mg/L	> 256 mg/L	128 mg/L (≈ 247 µM)	–	–	–	–	–	–	–	–	–
C[C@@H](O)[C@H]1C(=O)N2C(C(=O)O)=C(S[C@@H]3CN[C@H](C(=O)N(C)C)C3)[C@H](C)[C@H]12 [Meropenem]	32 mg/L (≈ 83.4 µM)	2 mg/L (≈ 5.22 µM)	> 64 mg/L	0.5 mg/L (≈ 1.3 µM)	64 mg/L (≈ 167 µM)	> 64 mg/L	> 64 mg/L	64 mg/L (≈ 167 µM)	–	–	–	–	–	–	–	–	–
C[C@@H](O)[C@H]1C(=O)N2C(C(=O)O)=C(SCCN=CN)C[C@H]12 [Imipenem]	32 mg/L (≈ 107 µM)	4 mg/L (≈ 13.4 µM)	64 mg/L (≈ 214 µM)	2 mg/L (≈ 6.68 µM)	32 mg/L (≈ 107 µM)	> 64 mg/L	> 64 mg/L	64 mg/L (≈ 214 µM)	–	–	–	–	–	–	–	–	–
CC(C)(O/N=C(\C(=O)N[C@@H]1C(=O)N2C(C(=O)[O-])=C(C[n+]3ccccc3)CS[C@H]12)c1csc(N)n1)C(=O)O [CAZ, ceftazidime]	64 mg/L (≈ 117 µM)	1 mg/L (≈ 1.83 µM)	256 mg/L (≈ 468 µM)	0.5 mg/L (≈ 0.915 µM)	256 mg/L (≈ 468 µM)	128 mg/L (≈ 234 µM)	> 256 mg/L	> 256 mg/L	–	–	–	–	–	–	–	–	–
CC[C@H]1OC(=O)[C@H](C)[C@@H](O[C@H]2C[C@@](C)(OC)[C@@H](O)[C@H](C)O2)[C@H](C)[C@@H](O[C@@H]2O[C@H](C)C[C@H](N(C)C)[C@H]2O)[C@](C)(O)C[C@@H](C)CN(C)[C@H](C)[C@@H](O)[C@]1(C)O [Azithromycin]	1 mg/L (≈ 1.34 µM)	16 mg/L (≈ 21.4 µM)	2 mg/L (≈ 2.67 µM)	1 mg/L (≈ 1.34 µM)	2 mg/L (≈ 2.67 µM)	32 mg/L (≈ 42.7 µM)	32 mg/L (≈ 42.7 µM)	1 mg/L (≈ 1.34 µM)	–	–	–	–	–	–	–	–	–
O=C(N[C@H](CO)[C@H](O)c1ccc([N+](=O)[O-])cc1)C(Cl)Cl [Chloramphenicol]	1 mg/L (≈ 3.09 µM)	> 64 mg/L	> 64 mg/L	1 mg/L (≈ 3.09 µM)	1 mg/L (≈ 3.09 µM)	> 64 mg/L	> 64 mg/L	2 mg/L (≈ 6.19 µM)	–	–	–	–	–	–	–	–	–
NS(=O)(=O)c1c(S(=O)(=O)N[C@@H]2CCNC2)ccc(N2CCc3[nH]nnc3C2)c1-c1nnn[nH]1 [Example 26, N1-[(3R)-pyrrolidin-3-yl]-4-(1,4,6,7-tetrahydro-5H-[1,2,3]triazolo[4,5-c]pyridin-5-yl)-3-(1H-tetrazol-5-yl)benzene-1,2-disulfonamide]	–	–	–	–	–	–	–	–	1.56 µM	3.13 µM	0.78 µM	0.78 µM	2.14 nM	6.25 µM	1.75 nM	5.97 nM	5.08 nM
